According to ChEMBL document CHEMBL1201862, “PubChem BioAssay data set” (2004):
Active and inactive are the calls of the source.

How the values were obtained:
Kallikrein-7 = Kallikrein-7 (Homo sapiens, UniProt P49862); test: Fluorescence Intensity-based biochemical primary high throughput dose response assay to identify activators of kallikrein-7 (K7) zymogen.
Aurora kinase B = Aurora kinase B (Homo sapiens, UniProt Q96GD4); type: functional
Aurora kinase A = molecular target: T1, Aurora kinase A (Homo sapiens, UniProt O14965); type: functional;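 further: value from the Navigating the Kinome kinase panel profiling, panel entry STK6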
T1 sequence (O14965 whole entry): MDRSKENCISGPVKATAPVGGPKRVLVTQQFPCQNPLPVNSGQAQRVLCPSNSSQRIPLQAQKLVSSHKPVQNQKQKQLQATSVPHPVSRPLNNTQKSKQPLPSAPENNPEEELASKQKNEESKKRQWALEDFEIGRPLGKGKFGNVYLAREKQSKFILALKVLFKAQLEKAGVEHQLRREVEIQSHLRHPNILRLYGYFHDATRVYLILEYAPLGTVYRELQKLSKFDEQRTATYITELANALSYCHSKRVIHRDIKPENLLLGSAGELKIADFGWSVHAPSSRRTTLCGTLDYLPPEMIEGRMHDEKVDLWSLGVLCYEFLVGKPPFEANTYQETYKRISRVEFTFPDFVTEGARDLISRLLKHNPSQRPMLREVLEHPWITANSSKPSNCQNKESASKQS

[1] = molecular target: NAD-dependent protein deacylase sirtuin-5, mitochondrial (Homo sapiens, UniProt Q9NXA8); test: sirtuin-5 deacylation blockers, concentration series – biochemical, fluorescence imaging, cherry-pick, set 5, dose response (AID 720591);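 further: desuccinylation of succinyl peptide AMC substrate read as fluorescence after trypsin release; potency of inhibitors that lower fluorescence and may act on trypsin instead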
Paired box protein Pax-8 = Paired box protein Pax-8 (Homo sapiens, UniProt Q06710); test: PAX8 transcriptional activity inhibition in RMG-I – RMG-I cells, luciferase, cherry-pick, dose response (AID 687027); type: functional, cell-based;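 further: luciferase reporter driven by Pax8 target thyroperoxidase promoter measured by SteadyGlo luminescence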
[2] = OVCAR8 cell viability loss – plate reader, dry powder samples, PAX8 project, dose response (AID 743197); type: functional, cell-based; conditions: OVCAR-8
[3] = OVCAR-3 cell viability loss – plate reader, dry powder samples, PAX8 inhibitor project, dose response (AID 743044); type: functional, cell-based
[4] = general cell-killing toxicity readout – plate reader, dry powder samples, cytotoxicity control for PAX8 inhibitor project, dose response (AID 743021); type: functional, cell-based
[5] = molecular target: T2, Trace amine-associated receptor 1 (Homo sapiens, UniProt Q96RJ0); test: Fluorescence-based cell-based high throughput dose response assay to identify agonists of the human trace amine associated receptor 1 (TAAR1).; type: functional
T2 sequence (Q96RJ0 whole entry): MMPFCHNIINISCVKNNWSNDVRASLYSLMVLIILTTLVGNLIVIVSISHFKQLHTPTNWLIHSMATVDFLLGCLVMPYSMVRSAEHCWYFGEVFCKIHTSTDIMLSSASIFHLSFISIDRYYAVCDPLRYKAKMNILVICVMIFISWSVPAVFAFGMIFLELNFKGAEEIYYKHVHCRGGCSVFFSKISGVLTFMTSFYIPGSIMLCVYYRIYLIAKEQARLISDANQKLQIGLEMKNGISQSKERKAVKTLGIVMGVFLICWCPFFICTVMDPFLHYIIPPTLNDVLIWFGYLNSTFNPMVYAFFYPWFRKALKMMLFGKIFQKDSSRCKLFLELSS

[6] = molecular target: T2, Trace amine-associated receptor 1; test: Counterscreen for agonists of the human trace amine associated receptor 1 (hTAAR1): Fluorescence-based cell-based high throughput dose response assay to identify hTAAR1 agonist that also desensitize TAAR1 receptor response.; type: functional
cells [7] = type: functional, cell-based
cells [8] = type: functional, cell-based; remark: listed apart in the source
[9] = molecular target: FAD-linked sulfhydryl oxidase ALR (Homo sapiens, UniProt P55789); test: ALR-catalysed DTT oxidation blockers – biochemical, H2O2 detection, luminescence, cherry-pick, dose response (AID 493248)
[10] = molecular target: T3, Sentrin-specific protease 1 (Homo sapiens, UniProt Q9P0U3); test: Dose response confirmation of small molecule inhibitors of the catalytic domain of the SUMO protease, SENP1 in a FRET assay.; type: functional; conditions: read-out: IC50_Mean
T3 sequence (Q9P0U3 whole entry): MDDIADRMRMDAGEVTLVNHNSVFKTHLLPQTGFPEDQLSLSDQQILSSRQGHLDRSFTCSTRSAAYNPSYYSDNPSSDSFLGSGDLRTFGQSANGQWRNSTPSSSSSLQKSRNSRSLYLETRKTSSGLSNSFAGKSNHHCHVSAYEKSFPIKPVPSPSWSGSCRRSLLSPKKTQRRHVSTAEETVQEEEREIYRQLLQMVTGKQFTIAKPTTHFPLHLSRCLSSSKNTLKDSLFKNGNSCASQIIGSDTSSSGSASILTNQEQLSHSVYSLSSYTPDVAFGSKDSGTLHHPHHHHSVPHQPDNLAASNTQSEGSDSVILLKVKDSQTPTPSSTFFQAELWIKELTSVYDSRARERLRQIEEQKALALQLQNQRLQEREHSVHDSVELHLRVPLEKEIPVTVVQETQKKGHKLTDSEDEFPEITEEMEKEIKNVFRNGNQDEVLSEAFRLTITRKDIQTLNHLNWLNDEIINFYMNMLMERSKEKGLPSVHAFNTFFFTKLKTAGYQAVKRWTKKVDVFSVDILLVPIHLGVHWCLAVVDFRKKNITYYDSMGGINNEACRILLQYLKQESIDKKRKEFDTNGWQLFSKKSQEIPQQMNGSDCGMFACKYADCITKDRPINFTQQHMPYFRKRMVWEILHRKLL

[11] = molecular target: T3, Sentrin-specific protease 1; test: SENP1 catalytic domain blockers, concentration series – biochemical, kinetic FRET, dose response (AID 651697); type: functional; conditions: read-out: IC50_Mean
[12] = intracellular Trypanosoma cruzi inhibitors in host cells – cell-based, plate reader, cherry-pick samples, set 3, dose response (AID 651818); type: functional;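 further: compounds incubated with infected cells for about four days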
[13] = activation of miR-122 Renilla sensor silencing – cell-based, Huh7 psiCHECK-miR122, Renilla luciferase, cherry-picked, dose response (AID 651956); type: functional;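 further: huh7 hepatoma cells stably carrying a psiCHECK-2 miR-122 sensor plasmid; renilla luciferase signal reporting endogenous miR-122 activity after 48 h compound exposure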
[14] = Counterscreen for inhibitors of Trypanosoma brucei methionyl tRNA synthetase (MetRS): Luminescence-based cell-based high throughput dose response assay to identify compounds that are cytotoxic to Jurkat human T lymphocyte cells.; type: functional
[15] = molecular target: T4, Long-chain-fatty-acid--AMP ligase FadD28 (Mycobacterium tuberculosis, UniProt P9WQ59); test: Fluorescence polarization aasay to screen for inhibitors that compete for the binding of FadD28 to a bisubstrate Measured in Biochemical System Using Plate Reader - 2147-01_Inhibitor_Dose_CherryPick_Activity.; type: functional, Mycobacterium tuberculosis H37Rv
T4 sequence (P9WQ59 whole entry): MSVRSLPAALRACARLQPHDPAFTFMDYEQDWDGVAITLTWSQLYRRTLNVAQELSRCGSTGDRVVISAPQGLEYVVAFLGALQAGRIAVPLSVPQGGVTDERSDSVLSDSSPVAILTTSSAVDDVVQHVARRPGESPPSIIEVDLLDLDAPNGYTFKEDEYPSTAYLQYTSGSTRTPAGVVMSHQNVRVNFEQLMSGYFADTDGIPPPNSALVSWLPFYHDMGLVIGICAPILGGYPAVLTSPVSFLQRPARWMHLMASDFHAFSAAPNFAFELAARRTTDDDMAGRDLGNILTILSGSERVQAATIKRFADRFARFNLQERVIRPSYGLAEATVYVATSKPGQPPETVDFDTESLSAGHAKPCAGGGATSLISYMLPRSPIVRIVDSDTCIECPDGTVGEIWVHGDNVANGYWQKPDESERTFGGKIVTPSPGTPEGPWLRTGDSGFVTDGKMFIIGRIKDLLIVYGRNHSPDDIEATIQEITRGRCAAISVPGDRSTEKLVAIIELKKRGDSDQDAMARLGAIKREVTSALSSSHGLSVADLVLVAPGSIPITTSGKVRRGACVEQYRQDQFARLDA

[16] = molecular target: T5, Methionyl-tRNA synthetase, putative (Trypanosoma brucei brucei, UniProt Q38C91); type: functional, Trypanosoma brucei brucei strain 927/4 GUTat10.1;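 further: Read-out by fluorescence polarization, run as a confirmatory high-throughput counterscreen; potency of MetRS inhibitors measured by reduced AMP formation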
T5 sequence (Q38C91 whole entry): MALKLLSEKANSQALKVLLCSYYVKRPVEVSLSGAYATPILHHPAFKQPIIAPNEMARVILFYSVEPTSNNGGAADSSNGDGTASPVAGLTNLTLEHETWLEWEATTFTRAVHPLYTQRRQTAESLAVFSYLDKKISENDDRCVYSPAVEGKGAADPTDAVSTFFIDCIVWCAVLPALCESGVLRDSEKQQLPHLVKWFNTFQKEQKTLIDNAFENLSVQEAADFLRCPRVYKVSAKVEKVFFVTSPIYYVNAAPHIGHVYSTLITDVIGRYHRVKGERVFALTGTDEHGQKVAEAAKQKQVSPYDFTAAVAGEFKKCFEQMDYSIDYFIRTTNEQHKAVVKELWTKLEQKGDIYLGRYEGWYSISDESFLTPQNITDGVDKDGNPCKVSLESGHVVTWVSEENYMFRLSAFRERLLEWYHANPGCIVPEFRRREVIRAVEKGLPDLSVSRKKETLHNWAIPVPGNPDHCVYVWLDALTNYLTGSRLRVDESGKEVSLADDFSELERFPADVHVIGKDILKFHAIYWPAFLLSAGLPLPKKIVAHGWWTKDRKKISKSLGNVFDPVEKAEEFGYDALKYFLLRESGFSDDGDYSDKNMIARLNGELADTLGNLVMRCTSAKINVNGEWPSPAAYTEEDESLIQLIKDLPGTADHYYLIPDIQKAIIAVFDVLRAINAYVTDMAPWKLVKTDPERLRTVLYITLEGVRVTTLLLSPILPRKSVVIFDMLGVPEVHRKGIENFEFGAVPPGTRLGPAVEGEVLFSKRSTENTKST

[17] = molecular target: T6, Tyrosyl-DNA phosphodiesterase 2 (Homo sapiens, UniProt O95551); test: potency against TDP2 phosphodiesterase activity – biochemical, epi absorbance, IC50, dose response (AID 743297)
T6 sequence (O95551 whole entry): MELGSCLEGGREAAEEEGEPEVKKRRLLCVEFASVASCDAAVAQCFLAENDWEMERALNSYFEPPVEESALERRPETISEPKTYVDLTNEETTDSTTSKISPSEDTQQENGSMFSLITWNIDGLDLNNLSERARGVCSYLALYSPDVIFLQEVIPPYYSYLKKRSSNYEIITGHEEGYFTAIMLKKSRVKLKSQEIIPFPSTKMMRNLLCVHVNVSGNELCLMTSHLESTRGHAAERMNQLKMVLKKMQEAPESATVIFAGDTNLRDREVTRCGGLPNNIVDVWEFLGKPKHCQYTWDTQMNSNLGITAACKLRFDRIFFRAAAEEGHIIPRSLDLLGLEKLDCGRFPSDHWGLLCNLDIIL

Sequence of NAD-dependent protein deacylase sirtuin-5, mitochondrial (Q9NXA8 whole entry): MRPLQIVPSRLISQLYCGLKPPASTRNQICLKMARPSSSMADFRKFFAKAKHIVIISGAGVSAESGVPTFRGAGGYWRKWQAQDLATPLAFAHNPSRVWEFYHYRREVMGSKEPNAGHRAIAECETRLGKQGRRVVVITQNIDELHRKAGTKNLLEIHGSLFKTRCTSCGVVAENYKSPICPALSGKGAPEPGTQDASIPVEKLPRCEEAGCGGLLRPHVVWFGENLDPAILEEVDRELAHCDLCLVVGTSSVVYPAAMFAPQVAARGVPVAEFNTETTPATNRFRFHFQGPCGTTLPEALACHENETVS
Sequence of Kallikrein-7 (P49862 whole entry): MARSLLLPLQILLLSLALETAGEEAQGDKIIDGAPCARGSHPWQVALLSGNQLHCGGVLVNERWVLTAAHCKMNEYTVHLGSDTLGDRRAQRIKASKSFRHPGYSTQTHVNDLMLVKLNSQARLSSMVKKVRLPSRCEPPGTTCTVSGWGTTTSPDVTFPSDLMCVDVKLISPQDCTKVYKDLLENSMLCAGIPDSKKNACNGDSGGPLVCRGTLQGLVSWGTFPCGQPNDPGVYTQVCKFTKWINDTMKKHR
Sequence of Paired box protein Pax-8 (Q06710 whole entry): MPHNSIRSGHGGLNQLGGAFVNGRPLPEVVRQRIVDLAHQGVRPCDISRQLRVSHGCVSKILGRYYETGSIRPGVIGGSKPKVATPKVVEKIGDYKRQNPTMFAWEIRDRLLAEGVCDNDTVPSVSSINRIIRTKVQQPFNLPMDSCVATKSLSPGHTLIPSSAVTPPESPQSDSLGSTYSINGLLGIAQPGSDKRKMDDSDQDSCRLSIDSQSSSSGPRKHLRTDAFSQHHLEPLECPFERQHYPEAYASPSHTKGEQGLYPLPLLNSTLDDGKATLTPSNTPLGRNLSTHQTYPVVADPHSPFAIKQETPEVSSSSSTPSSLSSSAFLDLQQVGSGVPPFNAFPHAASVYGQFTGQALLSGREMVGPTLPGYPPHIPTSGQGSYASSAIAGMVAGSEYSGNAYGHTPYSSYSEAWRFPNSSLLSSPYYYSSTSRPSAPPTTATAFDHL
Sequence of FAD-linked sulfhydryl oxidase ALR (P55789 whole entry, the tested form may be a part): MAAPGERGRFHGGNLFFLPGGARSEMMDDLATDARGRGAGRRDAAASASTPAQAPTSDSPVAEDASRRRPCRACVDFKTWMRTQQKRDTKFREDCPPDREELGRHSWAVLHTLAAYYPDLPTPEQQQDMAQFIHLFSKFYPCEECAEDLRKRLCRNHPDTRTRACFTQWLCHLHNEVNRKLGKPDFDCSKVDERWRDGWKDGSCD
Sequence of Aurora kinase B (Q96GD4 whole entry): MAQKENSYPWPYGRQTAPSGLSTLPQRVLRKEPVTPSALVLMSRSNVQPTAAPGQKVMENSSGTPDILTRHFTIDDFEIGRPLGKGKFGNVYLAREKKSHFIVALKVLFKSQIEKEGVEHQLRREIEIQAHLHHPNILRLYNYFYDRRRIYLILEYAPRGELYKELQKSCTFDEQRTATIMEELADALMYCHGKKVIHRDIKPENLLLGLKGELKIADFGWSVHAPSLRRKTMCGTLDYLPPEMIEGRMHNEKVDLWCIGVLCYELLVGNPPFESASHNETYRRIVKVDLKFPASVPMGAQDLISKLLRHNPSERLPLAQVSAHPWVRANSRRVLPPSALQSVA

Cc1c(C)c2c(OCC(=O)N[C@@H](CC(C)C)C(=O)O)cc3c(c2oc1=O)CCC(C)(C)O3
EC50 (Kallikrein-7): > 69.5 µM (inactive)

COCCOC1CCC(n2nc(-c3ccc(Nc4nc5cc(Cl)ccc5o4)c(F)c3)c3c(N)ncnc32)CC1 (stereo not drawn)
Ki (Aurora kinase B): 0.01 µM (active) | Ki (Aurora kinase A): 0.0398 µM (active)

O=C1NNC(=O)C1c1ccccc1
AC50 [1]: > 30 µM (inactive)

C[C@H](O)[C@@H]1C(=O)N2CCc3c([nH]c4ccccc34)[C@@H]2C[C@@H]1N(C)C(=O)NC1CCCCC1
EC50 (Kallikrein-7): 8.4 µM (active)

CCC1CN(C(=O)N2CCC(C(=O)Nc3ccccc3F)CC2)c2ccccc2O1 (stereo not drawn)
AC50 [1]: > 30 µM (inactive)

C[C@@H]1CN([C@@H](C)CO)C(=O)Cc2cc(NC(=O)CCCCCC(=O)Nc3ccccc3N)ccc2O[C@@H]1CN(C)Cc1ccc(C(F)(F)F)cc1
AC50 (Paired box protein Pax-8): 6.87 µM (active) | AC50 [2]: 18 µM (active) | AC50 [3]: 30.1 µM (active) | AC50 [4]: 45.4 µM (active)

COc1ccc(CCNC(=O)/C=C/C(=O)O)cc1
EC50 [5]: 10.4 µM (inactive) | IC50 [6]: > 29.9 µM (inactive) | IC50 (cells [7]): > 29.9 µM (inactive) | EC50 (cells [8]): > 29.9 µM (inactive)

COc1cc(/C=C2/SC(=S)N(CC(=O)O)C2=O)ccc1OC(=O)c1ccco1
AC50 [9]: 3.74 µM (active) | IC50 [10]: 5.86 µM (active) | IC50 [11]: 4.75 µM (active)

c1ccc2c(c1)CC1CNCc3cccc(c31)S2 (stereo not drawn)
EC50 [5]: 5.87 µM (active) | IC50 [6]: 7.1 µM (active) | IC50 (cells [7]): > 29.9 µM (inactive) | EC50 (cells [8]): > 29.9 µM (inactive)

C[C@H]1CN([C@@H](C)CO)C(=O)Cc2cc(N(C)C)ccc2O[C@@H]1CN(C)Cc1ccc(C(=O)Nc2ccccc2N)cc1
AC50 [12]: 0.794 µM (active)

CC/C(=N\CCc1ccccc1)C1=C(O)CCC1=O
EC50 [5]: 0.351 µM (active) | IC50 [6]: 2.34 µM (active) | IC50 (cells [7]): > 29.9 µM (inactive) | EC50 (cells [8]): > 29.9 µM (inactive)

CCCCCn1nnnc1-c1nc2cc3ccccc3cc2nc1O
IC50 [10]: 1.29 µM (active) | IC50 [11]: 4.94 µM (active)

C[C@H]1CN([C@@H](C)CO)C(=O)c2cc(-c3ccc(C#N)cc3)cnc2O[C@H]1CN(C)C(=O)Nc1ccc(C(F)(F)F)cc1
AC50 [13]: 7.44 µM (active)

O=C(CSc1ccc(-c2nc3ccccc3[nH]2)cn1)Nc1ccc(S(=O)(=O)N2CCCC2)cc1
IC50 [14]: 83.3 µM (inactive) | AC50 [15]: > 100 µM (inactive) | IC50 [16]: 8.73 µM (active)

COCCNC(=O)c1cccc(OC2CCN(Cc3ccc(OC(F)F)cc3)CC2)c1
AC50 [1]: > 30 µM (inactive)

Cc1ccc(NC(=O)CNc2ccccc2N2CCCC2=O)cc1S(=O)(=O)N1CCOCC1
AC50 [15]: 21.8 µM (active)

O=C(Nc1ccc2[nH]c(O)nc2c1)c1c(F)c(F)c(F)c(F)c1F
EC50 (Kallikrein-7): 22.9 µM (inactive)

C[C@@H]1CCCCO[C@@H](CN(C)Cc2ccc(Cl)c(Cl)c2)[C@@H](C)CN([C@H](C)CO)C(=O)c2cc(NC(=O)c3ccccc3)ccc2O1
AC50 [12]: 6.25 µM (active)

CCCCn1c(NC(=O)c2ccc(Br)o2)c(C(=O)OCC)c2nc3ccccc3nc21
IC50 [17]: > 128 µM (inactive)

C[C@@H]1CN([C@@H](C)CO)C(=O)Cc2cc(NS(=O)(=O)c3ccccc3)ccc2O[C@@H]1CN(C)S(=O)(=O)c1ccc(Cl)cc1
AC50 [12]: 6.08 µM (active)
